Reference: patent US8765819B2, “Composition comprising benzoic acid in combination with organic acid preservatives as active ingredients and the use thereof” (priority 2009, dated 2014)

Test system: Candida strains (clinical isolates from patients suffering from Candidal vaginitis)
Test: Inhibition of Candida growth in broth pH 4.5 (turbidity after 72 hours)
Format: cell-based
Details: for Candida growth, Strain 1: Strain 1, 37.5° C.; for Candida growth, Strain 2: Strain 2, 37.5° C.; for Candida growth, Strain 3: Strain 3, 37.5° C.; for Candida growth, Strain 4: Strain 4, 37.5° C.; for Candida growth, Strain 5: Strain 5, 37.5° C.; for Candida growth, Strain 6: Strain 6, 37.5° C.; for Candida growth, Strain 7: Strain 7, 37.5° C.; for Candida growth, Strain 8: Strain 8, 37.5° C.; for Candida growth, Strain 9: Strain 9, 37.5° C.; for Candida growth, Strain 10: Strain 10, 37.5° C.; for Candida growth, Strain 11: Strain 11, 37.5° C.; for number of the 11 Candida strains that grew: of 11 strains
Description: 1. […] Unless otherwise illustrated, the solutions in the experiments are all aqueous solutions. 2. Experimental Method: (1) Experimental Materials:
a) Experimental strains: 11 Candida strains, all of which were screened from the clinical isolates from patients suffering from Candidal vaginitis, and were capable of growing in broth comprising 0.025% (w/v) sodium benzoate.
b) Broth: 1% yeast extract powder, 9% sucrose, 0.025% Manganese sulfate (MnSO4.4H2O), 0.058% Magnesium sulphate (MgSO4.7H2O), and 0.9% lactic acid, wherein the pH value was adjusted to 4.5 and the broth was sterilized for use;
(2) Experimental Grouping:
The requirements for aseptic technique were strictly followed to prepare the following groups of sterile test tubes: • a) sodium benzoate group: a test tube containing 5 ml broth, to which 0.025% (w/v) sodium benzoate was added; • b) sodium benzoate+sodium dehydroacetate group: 6 test tubes each containing 5 ml broth, wherein 0.0025% (w/v), 0.005% (w/v), and 0.01% (w/v) sodium dehydroacetate were added to three tubes, respectively; 0.025% (w/v) sodium benzoate was added to each of the rest 3 tubes, and then 0.0025% (w/v), 0.005% (w/v), 0.01% (w/v) sodium dehydroacetate were added to them, respectively; • c) sodium benzoate+sodium propionate group: 6 test tubes each containing 5 ml broth, wherein 0.0625% (w/v), 0.125% (w/v), and 0.25% (w/v) sodium propionate were added to three tubes, respectively; 0.025% (w/v) sodium benzoate was added to each of the rest 3 tubes, and then 0.0625% (w/v), 0.125% (w/v), and 0.25% (w/v) sodium propionate were added to them, respectively; • d) sodium benzoate+potassium sorbate group: 6 test tubes each containing 5 ml broth, wherein 0.00625% (w/v), 0.0125% (w/v), and 0.025% (w/v) potassium sorbate were added to 3 tubes, respectively; 0.025% (w/v) sodium benzoate was added to each of the rest 3 tubes, and then 0.00625% (w/v), 0.0125% (w/v), and 0.025% (w/v) potassium sorbate were added to them, respectively; • e) sodium benzoate+Ethylparaben: 6 test tubes each containing 5 ml broth, wherein 0.0125% (w/v), 0.025% (w/v), and 0.05% (w/v) Ethylparaben were added to 3 tubes, respectively; 0.025% (w/v) sodium benzoate was added to each of the rest 3 tubes, and then 0.0125% (w/v), 0.025% (w/v), and 0.05% (w/v) Ethylparaben were added to them, respectively; • f) Positive control: a broth-containing test tube with Candida but without sodium benzoate, sodium dehydroacetate, sodium propionate, sorbic acid, or Ethylparaben. • g) Negative control: a broth-containing test tube without Candida, sodium benzoate, sodium dehydroacetate, sodium propionate, sorbic acid, or Ethylparaben; (3) Experimental Methods:
The Candidal suspensions were prepared under stringent aseptic manipulation techniques. The colonies of various Candidal strains were diluted with saline, respectively. The turbidity was adjusted with a turbiditor to 0.5M (about 10^8CFU/ml), and then 1 ml 0.5M bacterial solution was added to 9 ml broth and was 10 times diluted, so that each Candidal suspension comprised Candidal organisms at 10^7CFU/ml.
Under stringent aseptic manipulation techniques, 100 μl bacterial solution thus prepared was added to each of the aforesaid a˜f test tubes and the positive control tube, and no bacterial solution was added to the negative control tube g.
These tubes were incubated in a biochemical incubator at 37.5° C. for 72 hours. The turbidity of the test tubes were observed and recorded.

SMILES | Candida growth, Strain 1 | Candida growth, Strain 2 | Candida growth, Strain 3 | Candida growth, Strain 4 | Candida growth, Strain 5 | Candida growth, Strain 6 | Candida growth, Strain 7 | Candida growth, Strain 8 | Candida growth, Strain 9 | Candida growth, Strain 10 | Candida growth, Strain 11 | number of the 11 Candida strains that grew (listed as 0.01% (w/v) sodium dehydroacetate) | number of the 11 Candida strains that grew (listed as 0.25% (w/v) sodium propionate) | number of the 11 Candida strains that grew (listed as 0.0625% (w/v) sodium propionate) | number of the 11 Candida strains that grew (listed as 0.00625% (w/v) potassium sorbate) | number of the 11 Candida strains that grew (listed as 0.05% (w/v) Ethylparaben) | number of the 11 Candida strains that grew | number of the 11 Candida strains that grew (listed as 0.025% (w/v) potassium sorbate) | number of the 11 Candida strains that grew (listed as 0.0125% (w/v) Ethylparaben) | number of the 11 Candida strains that grew (listed as 0.0025% (w/v) sodium dehydroacetate)
CC(=O)c1c([O-])cc(C)oc1=O.[Na+] [0.01% sodium dehydroacetate, sodium dehydroacetate] | + | − | + | + | − | + | + | + | − | + | − | 7 |  |  |  |  |  |  |  | 
CC(=O)c1c([O-])cc(C)oc1=O.[Na+] [0.005% sodium dehydroacetate, sodium dehydroacetate] | + | + | + | + | − | + | + | + | − | + | + |  |  |  |  |  |  |  |  | 
CCC(=O)[O-].[Na+] [0.25% sodium propionate, sodium propionate] | − | − | + | + | − | − | + | + | − | + | − |  | 5 |  |  |  |  |  |  | 
CCC(=O)[O-].[Na+] [0.0625% sodium propionate, sodium propionate] | + | + | + | + | + | + | + | + | + | + | + |  |  | 11 |  |  |  |  |  | 
C/C=C/C=C/C(=O)[O-].[K+] [0.00625% potassium sorbate, potassium sorbate] | + | + | + | + | + | + | + | + | − | + | + |  |  |  | 10 |  |  |  |  | 
CCOC(=O)c1ccc(O)cc1 [0.05% Ethylparaben, Ethylparaben] | − | + | + | + | − | + | + | + | − | + | + |  |  |  |  | 8 |  |  |  | 
O=C([O-])c1ccccc1.[Na+] [0.025% sodium benzoate, sodium benzoate] | + | + | + | + | + | + | + | + | + | + | + |  |  |  |  |  | 11/11 |  |  | 
CCOC(=O)c1ccc(O)cc1 [0.025% Ethylparaben, Ethylparaben] | + | + | + | + | + | + | + | + | + | + | + |  |  |  |  |  |  |  |  | 
C/C=C/C=C/C(=O)[O-].[K+] [0.0125% potassium sorbate, potassium sorbate] | + | − | + | + | + | + | + | + | − | + | + |  |  |  |  |  |  |  |  | 
C/C=C/C=C/C(=O)[O-].[K+] [0.025% potassium sorbate, potassium sorbate] | + | − | + | + | + | + | + | + | − | + | + |  |  |  |  |  |  | 9 |  | 
CCOC(=O)c1ccc(O)cc1 [0.0125% Ethylparaben, Ethylparaben] | + | + | + | + | + | + | + | + | + | + | + |  |  |  |  |  |  |  | 11 | 
CC(=O)c1c([O-])cc(C)oc1=O.[Na+] [0.0025% sodium dehydroacetate, sodium dehydroacetate] | + | + | + | + | − | + | + | + | + | + | + |  |  |  |  |  |  |  |  | 10
